What was measured:
HIV-1 2-LTR circles = experiment: Real-time PCR quantification of episomal HIV-1 DNA (2-LTR circles) in PBMCs of HAART-suppressed patients intensified with raltegravir; type: in vivo
Text: (§1) A total of 69 patients with undetectable plasma viremia (viral load <50 HIV-1 RNA copies/ml) for at least one year were included in this study. All patients were on a suppressive HAART regimen that included 2 nucleoside reverse transcriptase inhibitors, and either a protease inhibitor or a non-nucleoside reverse transcriptase inhibitor. A total of 45 patients were randomized to intensify their HAART with the integrase inhibitor raltegravir for 12 weeks, and 24 patients were included as a control arm. One patient in the control group was lost to follow-up before study initiation. […]
The samples included in this study were drawn from HIV-1 infected patients who were longitudinally monitored for up to 12 weeks. […]
In the formation of 2-LTR circles, U3 and U5 sequences within the 5′ and 3′ LTRs ligate to form a unique U3-U5 circle junction that is not represented in other forms of viral cDNA (FIG. 1A). Therefore, 2-LTR circles were specifically measured by real-time PCR with primers flanking the 2-LTR circle junction. […]
Real-time PCR-based quantification of HIV-1 2-LTR circles was performed as follows. […] A single-step, real-time PCR was used to quantify 2-LTR circles in a 50 ul PCR reaction mix containing 25 ul of TaqMan® Universal PCR Master Mix (Applied Biosystems), 20 ul of extrachromosomal HIV-1 DNA and primers and probe that span the 2-LTR circle junction. […]

total HIV-1 DNA = experiment: Real-time PCR quantification of total HIV-1 DNA in PBMCs of intensified patients; type: in vivo; conditions: throughout the 12 weeks of intensification, p=0.342 signed rank test
Text: as §1
Total viral DNA forms (comprising unintegrated and integrated viral cDNA) were assayed using internal LTR primers (FIG. 2). […] Real-time PCR-based quantification of total HIV-1 DNA was performed as follows. […] A single-step real-time PCR was used to quantify total HIV-1 DNA in a 50 ul PCR reaction mix containing 25 ul of TaqMan® Universal PCR Master Mix (Applied Biosystems), 20 ul of chromosomal HIV-1 DNA and primers and probe that anneal in the 5′ and 3′ end of the R and U5 region of the LTR respectively, as has previously been described (Brussel and Sonigo, J Virol 77, 10119-10124 (2003)) using a forward primer; 5′ GG CTA ACT AGG GAA CCC ACT G 3′ (SEQ ID NO:4) and a reverse primer; 5′ GCTAGAGATTTTCCACACTGACTAA 3′ (SEQ ID NO:5). […] Amplification and calculation of copy number was determined as for 2-LTR DNA. […]

integrated HIV-1 DNA = experiment: Two-step Alu-LTR real-time PCR quantification of integrated HIV-1 DNA in PBMCs of intensified patients; type: in vivo; conditions: for levels of integrated HIV-1 DNA: throughout the 12 weeks of intensification, p=0.768 signed rank test
Text: A total of 69 patients with undetectable plasma viremia (viral load <50 HIV-1 RNA copies/ml) for at least one year were included in this study. All patients were on a suppressive HAART regimen that included 2 nucleoside reverse transcriptase inhibitors, and either a protease inhibitor or a non-nucleoside reverse transcriptase inhibitor. A total of 45 patients were randomized to intensify their HAART with the integrase inhibitor raltegravir for 12 weeks, and 24 patients were included as a control arm. One patient in the control group was lost to follow-up before study initiation. A second patient also in this group, who had two consecutive viral load measurements at weeks 12 and 24 (90 and 63 HIV-1 copies/mL respectively), was excluded for further analysis.
HIV-1 DNA purification was isolated as previously described (Hunt et al., J Infect Dis 187, 1534-1543 (2003)) with some modifications. […]
Real-time PCR-based quantification of integrated HIV-1 DNA was performed as follows. […] A two-step real-time PCR was used to quantitate integrated HIV-1 DNA using Alu-LTR primers as has previously been described (Brussel and Sonigo, J Virol 77, 10119-10124 (2003)). […] The fluorescence taqman probe was 5′[…] […]
Amplification and calculation of copy number was determined as for 2-LTR DNA. […] Integrated proviral DNA was measured using LTR-Alu primers. […]
(§2) Statistical analysis for the above-described experiments was performed as follows. […] In each group longitudinal changes of total and integrated HIV-1 and immune activation parameters were assessed through the signed rank test (paired test) comparing weeks 0 and 12, or weeks 0 and 24 respectively. Differences in proportions between groups were analyzed through the Pearson's chi square, considering the continuity correction or the Fisher's exact test, as appropriate. Within the intensified arm, differences in 2-LTR circles at weeks 2 and 4 compared to baseline were analyzed using Peto-Prentice-Wilcoxon test. […]

[1] = test system: memory CD4+ and activated CD8+ T cells; experiment: Flow cytometry analysis of lymphocyte subsets and immune activation in fresh blood; type: in vivo, HIV-1 infected patients
Procedure: Analysis of lymphocyte subsets and immune activation was performed as follows. A total of 52 patients, 34 in the intensification group and 18 patients in the control group, had fresh blood samples available for flow cytometry analysis through the study period. Different combinations of antibodies were used to characterize different lymphocyte subsets: combination 1 was designed to evaluate naïve/memory subsets and contained CD45RA-FITC, CD31-PE, CD38-PerCP, CD3-APC-Cy7, CD4-APC and CD8-PE-Cy7; combination 2 was designed to evaluate the activation of CD8 T cells and contained HLA-DR-FITC, PD-1-PE, CD38-PerCP, CD45RO-APC, CD3-APC-Cy7 and CD8-PE-Cy7. Controls with combinations of CD3-APC-Cy7, CD4-APC and CD8-PE-Cy7 antibodies were performed for all samples. All antibodies were obtained from Becton Dickinson. Briefly, 20 ul of fresh whole blood was incubated with antibodies for 15 min at room temperature with the different antibody combinations in V-bottom 96-well plates. Red cells were lysed using the BD FACs lysing solution (Becton Dickinson), washed once with PBS and resuspended in PBS containing 1% formaldehyde. Acquisition of flow cytometry data was performed on an LSRII flow cytometer (Becton Dickinson) coupled with a HTS loader. At least 30,000 lymphocytes were collected for each sample. Analyses were performed with FlowJo software (Tree Star Inc.).
as §2

[2] = raltegravir-intensified group as a whole, throughout the study period (weeks 0-24)

Cc1nnc(C(=O)NC(C)(C)c2nc(C(=O)NCc3ccc(F)cc3)c(O)c(=O)n2C)o1 [raltegravir]
patients with detectable 2-LTR circles (active replication revealed) (HIV-1 2-LTR circles; HAART intensified with raltegravir for 12 weeks, n=45, any time point during the study, 13/45, control 0/22, p=0.003): 29% | change in 2-LTR circles compared to baseline (HIV-1 2-LTR circles; intensification group, weeks 2 and 4 vs baseline (p=0.036 and p=0.023), subsequent decrease afterwards): significant and transient increase in 2-LTR circles | levels of total HIV-1 DNA (total HIV-1 DNA): remained stable | levels of total HIV-1 DNA (total HIV-1 DNA; listed as Raltegravir): did not cause significant fluctuations | patients from whom integrated HIV-1 DNA was amplified (integrated HIV-1 DNA; intensified patients 39/45, any time point after initiation of the study): 87% | levels of integrated HIV-1 DNA (integrated HIV-1 DNA): remained stable | levels of integrated HIV-1 DNA (integrated HIV-1 DNA; listed as Raltegravir): did not cause significant fluctuations | immune activation ([1]; patients in which raltegravir impacted active replication (2-LTR+ subgroup, n=13)): normalization of immune activation | activated CD8+ T cells [1, 2]: no major changes | memory CD4+ T cells (CD4+CD45RA-) [1, 2]: no major changes

From patent US8748088B2, “Methods of monitoring treatment effectiveness in HIV-infected patients receiveing intensified HAART regimens by measuring episomal 2-LTR circles” (University of Massachusetts, priority 2009, dated 2014)
